# Data: patent US9175077B2, “Nucleic acids encoding biologically active polypeptides derived from a novel early stage pregnancy factor designated maternin (MA)” (NOBEL BIOSCIENCES LLC, priority 1999, dated 2015)
# Values joined by “and” are separate entries in the source; they are usually repeats but may differ in a detail not shown here. Equal values may be shown once.
# Key:
# [1] = system: human primitive hematopoietic stem cells; experiment: Long term cultures (LTC-IC, stroma-free) of CD34+, CD38− cells from human BMMC; type: cell-based
# Method: In the human system, a long-term culture-initiating assay (LTC-IC) can be used to detect cells that can generate myeloid clonogenic cells (CFC/colony forming cells) in long-term cultures for a minimum of 5 weeks. Bone marrow stromal was produced by culturing 107 fresh BM-MNC in a T25 flash for at least 2 weeks in 5 mL stromal medium; 12.5% horse [HS] and 12.5% fetal calf serum [FCS]; both from hyclone [Logan, Utah], Iscove's modified Dulbecco's medium [IMDM, GIBCO-BRL], 2-mercaptoethanol [Sigma, st. Louis, Mo.], 10^−6 mol/L hydrocortisone [Sigma] and penicillin/streptomycine.
# One or 2 days before co-cultures, bone marrow stroma was irradiated with 15Gy and plated at 7×10^3/cm^2 in 24-well plates to form pre-established stromal layers for the long-term cultures. Limiting dilution was 1 to 1000 CD34+ bone marrow/cord blood cells and equivalent aliquots, i.e., limiting dilutions of the cells grown in long-term cultures stroma-free cultures after 2 to 20 weeks were seeded on top of the irradiated bone marrow stroma in culture medium containing IMDM, 12.5% HS, 12.5% FCS, 2-mercptoethanol, and 10^−6 mon-hydrocortisone for 5 weeks LTC-IC assay period. Non-adherent cells were removed from the cultures, combined with the corresponding trypsinized adherent cells, washed and assayed for colony forming units (CFU-Cs) in methylcellulose medium containing 1.3% methylcellulose (Fluka Chemilka Biochemika, buck\hs, Switzerland), 30% FCS, EPO (3 U/ml), IL-3 (20 ng/ml), G-CSF (20 ng/ml), GM-CSF (20 ng/ml) and KL (c-kit, 50 ng/ml). These cultures were incubated at 37° C. and colonies were scored 2 to 3 weeks later. LTC-IC enumeration was based on the number of CFU-C scored in the limiting assays [LDA] and another technique.
# Stroma-free long-term cultures were performed as follows. 2 to 10×10^3 CD34+/CD34^−CD38^− from bone marrow/CB/PBMC cells were cultured in quadrutriplicate flat bottomed 24 well plates in 1 ml to of IMDM supplemented with 10% FCS and the following cytokines: IL-3 (10 ng/ml), IL-6 (10 ng/ml), KL [c-kit 50 ng/ml, FL (50 ng/ml) and TPO (10 U/ml), which added, alone or in combination of two or more factors, to each series of microwells twice a week. The wells were grown at 37° C. and share a number of features with in vivo murine long-term repopulating cells. These include assay for cobblestone areas colony forming cells (CAFC), high proliferative potentials colony-forming cells (HPP-CFC), CFU-GEMM, CFU-B1 (blast colony forming units).
# human tumor cells = type: cell-based
# [2] = LTC stroma free after 3 mos, n = 3
sequence,measurement,setting,value
VVCNYRDVRFESIRLPGCPRGVNPVVSYAVALSCQ [MA],BFU-e,[1]; [2],161 ± 8
same,CFU-GM,[1]; [2],198 ± 11
same,CFU-Mixed,[1]; [2],13 ± 3
same,T-CFC,[1]; [2],199 ± 10
same,CFU-GM: % of CD14,[1]; culture 3,27%
same,CFU-GM: % of CD68,[1]; culture 3,22%
same,CD34+ cells,[1]; culture 3 (LTC stroma free treated with MA),77.71%
same,T colonies Rx MA: CD3+/CD4+,"[1]; for 1, 2, and 3 (respectively)",38% and 28% and 46%
same,T colonies Rx MA: CD3+/CD8+,"[1]; for 1, 2, and 3 (respectively)",32% and 29% and 49%
same,effect on HTLV-I induced adult T-cell leukemia,human tumor cells,no effect
same,effect on some β-cell lymphomas,human tumor cells,no effect
